Measurements taken from patent US20030073654A1, “Stabilized transient gene expression” (Genespan Corporation, priority 1996, published 2003).
Entries after “also recorded” stand apart in the source; their conditions may differ. Read-outs that look alike come from different tables or passages of the source.

Assays:
[1] = system: SW480 P3 (ATCC #CCL228) human colon carcinoma cells; assay: Screening assay for enhancement of transient expression (β-galactosidase gene, liposomal transfection, 6-well plates); type: cell-based; conditions: for G Factor (G14): Table 1, values without asterisk, days 4-14 after transfection; for X Factor / K Factor: Table 1; for X Factor: cumulative β-galactosidase vs control, first four days after transfection, compound at the mM given in the table; for K Factor: ratio of first order rate constants of change in expression, control vs compound; for effect on transient expression when present before or during the transfection step: polyanionic carbohydrates, liposomal transfection
From the text: These parameters are called the “X” factor, the “G” factor, and the “K” factor. [formula]
This factor reflects the extent to which a chemical compound added to a transfected cell enhances stabilizes transient expression for the first four days following transfection. […] For example, if expression is doubled in the presence of a compound, […]. […] X may be calculated similarly when the agent in question is a mixture of more than one chemical compound.
Cumulative protein expression, i.e., the values for “A” and “C”, is measured by summing the values measured daily in aliquots of the cultured cells.
2. G factors. G factors differ from the X factor only with respect to the time period evaluated. For calculating a G factor, the amount of protein expressed is measured from days 4-7 or days 4-14, where day 0 is the day on which the foreign DNA is added to the cells. The subscripts denote which of the two time periods provided the basis for measurement. […] As for the X factor, [formula]
3. K factor. The K factor is the ratio of the rate constants for the change in the foreign DNA expression in control transfected cells and in cells exposed to a chemical compound of the subject invention. K is determined according to the following equation: [formula]
wherein “k(DNA)” is the first order rate constant for the change in concentration of the protein expressed from the transgenic DNA, which is expressing protein as a function of time, i.e., [formula]
Values for k(DNA) are derived by using a computer program that plots the log of the foreign protein concentration against time, using the results of transgenic protein measurements that begin about 24 hours after the foreign DNA has been added to the cell. […] However, the program calculates a “best fit” line for each data set, and determines the slope of that portion of the resulting line that corresponds to the period during which protein production is changing. […] Thus, the slope is calculated during this period of decline to provide values for k(DNA) and K that can be compared for the purpose of comparing the efficacy of different chemical compounds.
SW480 P3 (ATCC #CCL228) human colon carcinoma cells (typically, 1×10^6 cells) were plated in the wells of a 6-well tissue culture plate. The number of wells plated reflected the number of days post-transfection during which the experiment would proceed. Each well contained 1 ml of complete media from a 30 ml stock solution containing: 26.4 ml RPMI tissue culture medium, 4 mM L-glutamine, 3.0 ml fetal bovine serum, and 10 μg/ml gentamicin. Cells were cultured at 37° C. in a CO2 incubator with 10% CO2 for 24 hours after being plated, during which time the cells adhered to the plates.
After the 24 hour pre-incubation step, the transfection step was carried out by removing the RPMI and adding 900 μL OPTI-MEM® (Gibco) medium containing 2 μg of VR1412 DNA (Vical, Inc., San Diego, Calif.), which expresses the bacterial β-galactosidase gene under the control of a cytomegalovirus promoter, and 8 μg of a mixture of cationic lipid (1,2-dimyristyloxyproply-3-dimethyl-hydroxyethyl ammonium bromide (e.g., “DMRIE/DOPE”) mixed in equimolar proportions with dioleoylphosphatidylethanolamine) to yield a lipid:DNA molar ratio of 0.99:1. It should be noted that typical transient transfection protocols employ 10 μg DNA per 10^6 cells, but the protocol described here uses less DNA in order to reduce toxicity to the cells. The plates were then incubated for 4 hours at 37° C.
After the 4 hour incubation step, 100 μl of heat deactivated fetal bovine serum (to stop transfection), plus 12.0 μl of 50 mg/ml gentamicin were added to each well.

[2] = pH of aqueous solutions of the compounds; type: physicochemical; conditions: stock solutions prepared in culture media diluted with deionized water
Experimental: The pH values shown in Table 1 were determined in aqueous solutions made by diluting stock solutions prepared in culture media with deionized water.

| Compound | G Factor (G14) [1] | X Factor [1] | pH (H20) [2] | other results |
| --- | --- | --- | --- | --- |
| O=C(O)CCCC(=O)O [GLUTARIC ACID] | −77 | 22 | 3.85 | – |
| N[C@@H](CCC(=O)N[C@@H](CS)C(=O)NCC(=O)O)C(=O)O [GLUTATHIONE] | 34 | 2 | 3.58 | K Factor [1]: 1; pH (H20) ([2]; listed as glutathione): ~3 |
| NCC(=O)O [GLYCINE] | 40 | −.34 | 7.27 | K Factor [1]: 2 |
| O=C(O)CNC(=O)c1ccccc1 [HIPPURIC ACID] | 33 | 2 | 6.46 | K Factor [1]: 1 |
| N[C@@H](Cc1c[nH]cn1)C(=O)O [HISTIDINE] | 6 | – | 6.75 | G Factor (G7) ([1]; Table 1, values marked with asterisk, days 4-7 after transfection): 54; K Factor [1]: 1, 1 |
| N[C@@H](CCO)C(=O)O [HOMOSERINE] | 39 | 77 | 7.4 | – |
| CC[C@H](C)[C@H](N)C(=O)O [ISOLEUCINE] | 30 | −119 | 6.99 | – |
| N=C(N)NCCC[C@H](N)C(=O)O [L-ARGININE] | 57 | – | 8.66 | G Factor (G7) ([1]; Table 1, days 4-7 after transfection): 11 |
| C/C1=C2/[N-][C@H]([C@H](CC(N)=O)[C@@]2(C)CCC(=O)NC[C@H](C)OP(=O)([O-])O[C@H]2[C@@H](O)[C@@H](n3cnc4cc(C)c(C)cc43)O[C@@H]2CO)[C@]2(C)N=C(/C(C)=C3N=C(/C=C4N=C1[C@@H](CCC(N)=O)C\4(C)C)[C@@H](CCC(N)=O)[C@]\3(C)CC(N)=O)[C@@H](CCC(N)=O)[C@]2(C)CC(N)=O.[CH3-].[Co+3] [METHYLCOBALAMIN] | 25 | 1 | – | – |
| NCCC[C@H](N)C(=O)O [ORNITHINE] | 28 | 16 | – | – |
| O=C(O)CCCCC1CCSS1 (stereo not drawn) [α-lipoic acid, lipoic acid] | – | – | – | results when substituted for benzoate buffer ([1]; used in conjunction with chondroitin sulfate as in plates 6 or 13 of Table 9): comparable results |
| N-carboxymethylchitosan N,S-sulfate | – | – | – | effect on transient expression when present before or during the transfection step [1]: blocking effect |
| carboxymethylcellulose | – | – | – | effect on transient expression when present before or during the transfection step [1]: blocking effect |
| dermatan sulfate | – | – | – | effect on transient expression when present before or during the transfection step [1]: blocking effect |
| ethyoxy benzoic acid | – | – | – | effect on transient expression [1]: capable of prolonging transient expression |
| gentamicin [reference compound] | – | – | – | effect on protein production ([1]; control plates 1A (with gentamicin) vs 1B (no gentamicin)): somewhat suppressed protein production |
| heparan sulfate | – | – | – | effect on transient expression when present before or during the transfection step [1]: blocking effect |
| heparin [reference compound] | – | – | – | effect on transient expression when added after the transfection step [1]: effective in enhancing transient expression; also recorded: enhance transient expression; effect on transient expression when present before or during the transfection step [1]: blocking effect; also recorded: blocked transient expression |
| hydroxypropyl guaran | – | – | – | effect on transient expression [1]: capable of prolonging transient expression; effect on transient expression ([1]; listed as Hydroxypropyl guarans): enhance transient expression to some degree |
| iso-propyl benzoic acid | – | – | – | effect on transient expression [1]: capable of prolonging transient expression |
| isobutyl benzoic acid | – | – | – | effect on transient expression [1]: capable of prolonging transient expression |
| methoxy benzoic acid | – | – | – | effect on transient expression [1]: capable of prolonging transient expression |
| t-butyl benzoic acid | – | – | – | effect on transient expression [1]: capable of prolonging transient expression |
